According to US20240269154A1, “CANNABIDIOL FOR USE IN THE TREATMENT OF PAIN RESULTING FROM AN INDOLEAMINE 2,3-DIOXYGENASE-1 (IDO1) RELATED DISEASE” (Assistance Publique - Hopitaux de Paris, priority 2021, published 2024):
“Also recorded” adds a separate entry of the source.

Tested on: patients suffering from indolent systemic mastocytosis (ISM) or mast cell activation syndrome (MCAS) or having hypertryptasemia
Test: Numeric rating scale (NRS) pain score in 15 patients treated with CBD capsules
Assay type: in vivo, human
Conditions: for reduction of pain / average pain score (NRS): 15 patients; for reduction of pain: NRS; for average pain score (NRS): D0 average about 7.2
Protocol: Fifteen patients suffering from indolent systemic mastocytosis (ISM) or mast cell activation syndrome (MCAS) or having hypertryptasemia with no positive result from classic treatments were treated with a daily dose from 15 to 400 mg of cannabidiol (CBD) by capsule.
The pain was measured using numeric rating scale (NRS) pain score, between 0 (no pain) and 10 (worst pain imaginable).

[1] = after one month of treatment (M1)
[2] = after three months of treatment (M3)

Structure (SMILES): C=C(C)[C@@H]1CCC(C)=C[C@H]1c1c(O)cc(CCCCC)cc1O [CBD, cannabidiol]
- reduction of pain (M1 versus D0): about 2 points
- reduction of pain (M3 versus D0): about 3 points
- average pain score (NRS) [1]: 5.1
- average pain score (NRS) [2]: 3.8
- relief of pain observed [1]: 13 of 15
- relief of pain observed [2]: 14 of 15
- pain treatment withdrawal (individual patient, other pain treatment stopped under CBD): stop stelara; also recorded: stop NSAID; also recorded: stop nefopam; also recorded: stop memantine,; also recorded: stop opioids; also recorded: stop methadone,; also recorded: stop methadone; also recorded: stop ketamine; also recorded: stop amitriptyline
